# In US20230000813A1, “COMPOUND FOR THE TREATMENT OF BOVINE OR SWINE RESPIRATORY DISEASE” (Intervet Inc., priority 2016, published 2023):
# Experiments:
# Test in all cases: MIC, broth-microdilution (CLSI VET01-A4)
# Assay type in all cases: cell-based
# [1] = system: Mannheimia haemolytica MH 6374 (ATCC 33396, reference strain); details: Mannheimia haemolytica MH 6374; for MIC: read-out: MIC MH 6374
# Description: (§1) The Minimum inhibitory concentrations (MIC) of compounds according to the invention for a number of veterinary bacterial pathogens were determined by the broth-microdilution method according to CLSI document VET01-A4.
# (§2) Microdilution trays containing a doubling dilution series of the test compound were used for the tests. The MIC results were interpreted according to the CLSI documents VET01-S3. The lowest concentration of compound at which no visible growth (i.e. no turbidity) detected by the unaided eye was recorded as the MIC.
# (§3) The Minimum inhibitory concentrations (MIC) of compounds according to the invention were determined by the broth-microdilution method according to CLSI document VET01-A4.
# (§4) Microdilution trays containing a doubling dilution series of the test compound were used for the tests.
# (§5) The MIC results were interpreted according to the CLSI documents VET01-S3. The lowest concentration of compound at which no visible growth (i.e. no turbidity) detected by the unaided eye was recorded as the MIC.
# [2] = system: Mannheimia haemolytica MH 6357 (M7/2, reference strain, cattle infection strain); details: Mannheimia haemolytica MH 6357; for MIC: read-out: MIC MH 6357
# Description: as §1, §2, §3, §4, §5
# [3] = system: Mannheimia haemolytica MH 12587 (1071, BRD field isolate, macrolide-resistance: erm+, E+); details: Mannheimia haemolytica MH 12587, macrolide-resistant
# Description: as §1, §2, §3, §4, §5
# [4] = system: Pasteurella multocida PM 12080 (IV102277-0093, BRD field isolate); details: Pasteurella multocida PM 12080
# Description: as §1, §2, §3, §4, §5
# [5] = system: Pasteurella multocida PM 6391 (ATCC 43137, reference strain); details: Pasteurella multocida PM 6391
# Description: as §1, §2, §3, §4, §5
# [6] = system: Mannheimia haemolytica MH 10720 (154, BRD field isolate); details: Mannheimia haemolytica MH 10720
# Description: as §1, §2, §3, §4, §5
# [7] = system: Pasteurella multocida PM 6267 (P 2225 (L386), reference strain, mouse infection strain); details: Pasteurella multocida PM 6267
# Description: as §1, §2, §3, §4, §5
# [8] = system: Mannheimia haemolytica MH 13093 (XB0472-6014.1, BRD field isolate)
# Description: as §1, §2
Compound,MIC MH 6374 [1],MIC [2] [µM],MIC MH 12587 [3] [µM],MIC PM 12080 [4],MIC PM 6391 [5],MIC MH 10720 [6],MIC PM 6267 [7],MIC [8] [µM],MIC [1] [µM],MIC MH 6357 [2]
C#CCNCc1ccc(C#Cc2ccc(C(=O)N[C@H](C(=O)NO)[C@@H](C)O)cc2)cc1 [C. 469],<=0.1 μM,0.2,0.4,<=0.1 μM,<=0.1 μM,<=0.1 μM,<=0.1 μM,0.4,–,–
CC(O)C(NC(=O)c1ccc(C#CC#CC=CCNC2CC2)cc1)C(=O)NO (centres unmarked) [Compound 444],–,0.4,1.6,<=0.1 μM,<=0.1 μM,<=0.1 μM,<=0.1 μM,1.6,0.8,–
CC(O)C(NC(=O)c1ccc(C#CC#CC=CCN2CCC(c3ccccc3)CC2)cc1)C(=O)NO (centres unmarked) [Compound 448],–,0.8,1.6,<=0.1 μM,<=0.1 μM,<=0.1 μM,<=0.1 μM,1.6,0.4,–
CC(O)C(NC(=O)c1ccc(C#CC#CC=CCN(C)Cc2ccccc2)cc1)C(=O)NO (centres unmarked) [Compound 452],–,0.2,0.8,<=0.1 μM,<=0.1 μM,–,<=0.1 μM,0.8,0.4,–
CC(O)C(NC(=O)c1ccc(C#CC#CC=CCNCc2ccc(Cl)cc2)cc1)C(=O)NO (centres unmarked) [Compound 453],–,1.6,1.6,<=0.1 μM,<=0.1 μM,<=0.1 μM,<=0.1 μM,1.6,0.4,–
CC(O)C(NC(=O)c1ccc(C#CC#CC=CCNCc2cccnc2)cc1)C(=O)NO (centres unmarked) [Compound 460],–,0.8,1.6,<=0.1 μM,<=0.1 μM,–,<=0.1 μM,1.6,0.8,–
CC(O)C(NC(=O)c1ccc(C#CC#CC=CCNCc2ccnc(Cl)c2)cc1)C(=O)NO (centres unmarked) [Compound 461],–,0.4,1.6,<=0.1 μM,<=0.1 μM,<=0.1 μM,<=0.1 μM,1.6,0.4,–
CC(O)C(NC(=O)c1ccc(C#CC#CC=CCNCc2cccs2)cc1)C(=O)NO (centres unmarked) [Compound 464],–,0.4,0.8,<=0.1 μM,<=0.1 μM,<=0.1 μM,<=0.1 μM,0.8,0.2,–
C[C@@H](O)[C@H](NC(=O)c1ccc(C#Cc2ccc(CN3CC=CC3)cc2)cc1)C(=O)NO [Compound 468],<=0.1 μM,–,0.4,<=0.1 μM,<=0.1 μM,<=0.1 μM,<=0.1 μM,0.4,–,<=0.1 μM
CSCCNCc1ccc(C#Cc2ccc(C(=O)N[C@H](C(=O)NO)[C@@H](C)O)cc2)cc1 [Compound 472],–,0.4,1.6,<=0.1 μM,<=0.1 μM,<=0.1 μM,<=0.1 μM,1.6,0.8,–
Cc1cnc(CNCc2ccc(C#Cc3ccc(C(=O)N[C@H](C(=O)NO)[C@@H](C)O)cc3)cc2)o1 [Compound 474],–,0.2,0.8,<=0.1 μM,<=0.1 μM,<=0.1 μM,<=0.1 μM,0.8,0.4,–
